The results in this text go back to patent US20210087159A1, “TETRAHYDROCANNABINOLIC- CA[…] DERIVATIVES AND USES THEREOF” (AL&AM […]., priority 2018, published 2021).

What all share (type): cell-based
For one experiment, the system named is A549, lung carcinoma. The experiment in a line: CellTiter-Glo cell viability assay, cancer cell cytotoxicity/anti-proliferation panel (Chempartner). As for the experimental part:
(§1) In this study, the biological activity of certain compounds of the present invention on cancer cell cytotoxicity/anti-proliferation panel was tested using the CellTiter-Glo® cell viability assay. The compounds were dissolved in DMSO to make 10 mM solution.
(§2) The cell lines tested were all selected from the Chempartner's cell collection and included: Caco-2 ATCC colon adenocarcinoma; TE-6 RIKEN esophagus, carcinoma; PC-3 ATCC prostate adenocarcinoma; T47D, breast ductal carcinoma; U251, brain human glioma; A549, lung carcinoma; OMP-2, multiple myeloma; SK-HEP-1, liver adenocarcinoma; PANC-1, pancreas ductal carcinoma; AsPC-1, pancreas, ductal carcinoma; and U-87 MG, brain glioblastoma.
(§3) For the assays described herein, absolute inhibition of cells growth (%) and absolute IC50 (Abs IC50; […]) were used to derive a value that can be used to compare results within and across runs in the same assay, as well as between different assays.
(§4) • a. Prepare complete medium: Add FBS and appropriate additives according to the information sheet provided by the vendor. Mix gently. • b. Check the cell name and complete medium and passage number marked on the flask. For adherent cell lines, refer to c to k. For suspension cell lines, refer to g to k. • c. Remove and discard culture medium using a vacuum pump. • d. Briefly rinse the cell layer with 0.25% (w/v) trypsin-0.038% (w/v) EDTA solution to remove all traces of serum that contains trypsin inhibitor. • e. Add 3.0 ml of trypsin-EDTA solution to flask and observe cells under an inverted microscope until cell layer is dispersed. • f. Add 8.0 ml of complete growth medium and aspirate cells by gently pipetting. • g. Transfer the cell suspension to a centrifuge tube and centrifuge at 800-1000 rpm for 3-5 minutes. • h. Discard the supernatant using a vacuum pump. • i. Add appropriate volume of complete medium. Suspend the cell pellet by gently pipetting. • j. Count the cell numbers with Vi-cell XR and adjust cells to appropriate density. • k. Add 100 μL of cell suspension to 96-well opaque-walled clear bottom plates according to the planned plate layout and place the plates in the CO2 incubator overnight. • l. Plate layout:
(§5) • Plate preparation of testing articles. 10 mM stock solution of each one of the compounds (provided as powder) was prepared in DMSO. […] 0.5 μL of each of the diluted compounds was transferred to the wells containing 100 μL of the culture medium. The total dilution was 200 fold. Cells were incubated with the compounds for 72 hours at 5% CO2, 37° C.
(§6) • Thaw the CellTiter-Glo buffer and equilibrate to room temperature prior to use. • Equilibrate the lyophilized CellTiter-Glo substrate to room temperature prior to use. • Transfer the appropriate volume of CellTiter-Glo buffer into the amber bottle containing CellTiter-Glo substrate to reconstitute the lyophilized enzyme/substrate mixture. This forms the CellTiter-Glo reagent. • Mix by gently vortexing, swirling or by inverting the contents to obtain a homogeneous solution. The CellTiter-Glo substrate should go into solution easily in less than one minute.
(§7) • Observe the cell morphology under an inverted microscope after corresponding treatment. • Equilibrate the plate and its contents to room temperature for approximately 30 minutes. • Add 100 μL of CellTiter-Glo reagent to the assay plate by Multidrop Combi instrument. • Mix contents for 10 minutes on an orbital shaker to induce cell lysis. • Allow the plate to incubate at room temperature for 10 minutes to stabilize luminescent signal. • Paste the clear bottom with white back seal and record luminescence with Enspire. The settings should be: Luminescence, measurement time 0.1 ms.
(§8) Inhibition (%) and absolute IC50 (μM) of each compound was calculated with XLFit curve fitting software that is compatible to Activity Base.

The test system of experiment [1] is AsPC-1, pancreas, ductal carcinoma. The description is as above. Here is the method: as §1, §2, §3, §4, §5, §6, §7, §8
Experiment [2] has as its system PANC-1, pancreas ductal carcinoma. The experiment is described as above. As for the experimental part: as §1, §2, §3, §4, §5, §6, §7, §8
In experiment [3] the test system is T47D, breast ductal carcinoma. The description is as above. As to conditions: T47D. As for the experimental part: as §1, §2, §3, §4, §5, §6, §7, §8
The subject of experiment [4] is U-87 MG, brain glioblastoma. The experiment is described as above. As for the experimental part: as §1, §2, §3, §4, §5, §6, §7, §8
For experiment [5], the system named is PANC-1 (pancreatic carcinoma). The experiment in a line: XTT cytotoxicity assay (Pharma Seed). As to conditions: Homo sapiens, 48 hours, 20, 10, 5, 1 μM, assay medium 1% FBS. As for the experimental part:
In this study, the cytotoxicity of several compounds of the present invention on lung and pancreatic cancer cell was evaluated.
PANC-1 (pancreatic carcinoma) culture medium: DMEM (High Glucose), supplemented with 10% FBS (heat inactivated), 2 mM L-glutamine, and 1% of Pen/Strep/Amp solution. PANC-1 assay medium: DMEM (High Glucose), supplemented with 1% FBS (heat inactivated), 2 mM L-glutamine, and 1% of Pen/Strep/Amp solution.
Each of the tested compounds was dissolved in DMSO to reach a stock concentration of 20 mM (and stored at −15° C.-−25° C. until use. Compound Ia28 (MW 484 g/mol, 3.05 mg total) was dissolved in 0.315 mL; compound Ia9 (MW 484 g/mol, 2.33 mg total) was dissolved in 0.241 mL; and compound Ia6 (MW 428.3 g/mol, 2.25 mg total) was dissolved in 0.262 mL.
On the day of incubation with the cells, each compound was diluted in DMSO to reach 2 mM, 1 mM, 0.5 mM, 0.1 mM stock concentrations (1:10, 1:20, 1:40 and 1:200), and each of these stocks was further diluted in assay medium 1:100 for final concentration of 20 μM, 10 μM, 5 μM, and 1 μM.
Part 1—cell number calibration. PANC-1 and A549 cells were each plated in a 96 well plate, in their culture medium, at various cell concentrations per well, in triplicates, and were allowed to attach for 24 hours. Thereafter, culture medium was discarded, assay medium was added, and the cells were incubated for additional 72 hours. Finally, assay medium was discarded, and fresh culture medium was added to the cells along with 50 μl XTT reagent. The OD was measured every two hours for 6 hours (three times).
The highest cells number/well were chosen for part 2 as follows: PANC-1 at 7,500 cells per well, A549 at 5000 cells per well.
Part 2—cells incubation with tested compounds. PANC-1 and A549 cells were plated in a 96 well plate, in their culture medium, at the optimal cell concentration according to the results from the previous section and were allowed to attach for 24 hours. Thereafter, the culture medium was discarded, and fresh assay medium was added to the cells, supplemented with elevating compound concentrations. Triton 0.1% was used as positive control for cell death. The cells were incubated for another 48 hours (TBD upon microscopic observation). Finally, fresh culture medium was added to the cells along with 50 μl XTT reagent. The OD was measured at the optimal time point according to the results in the previous section.

Setting [6] is: Homo sapiens, 72 h, read-out: IC50 (absolute IC50).
[7] abbreviates: 72 hours, compounds 10 μM starting, STS 2 μM starting, 10-pt, 3-fold dilution.

For the compound `CCCCCc1cc2c(c(O)c1C(=O)N/N=C/c1ncccn1)[C@@H]1C=C(C)CC[C@H]1C(C)(C)O2` [Ia16, (6aR,10aR)-1-hydroxy-6,6,9-trimethyl-3-pentyl-N′-((E)-pyrimidin-2-ylmethylene)-6a,7,8,10a-tetrahydro-6H-benzo[c]chromene-2-carbohydrazide], the Inhibition in the experiment with A549, lung carcinoma (A549, 72 hours, compounds 10 μM starting, STS 2 μM starting, 10-pt, 3-fold dilution) was 70.01%; in experiment [1] (AsPC-1, 72 hours, compounds 10 μM starting, STS 2 μM starting, 10-pt, 3-fold dilution), 67.70%; in experiment [2] (PANC-1, 72 hours, compounds 10 μM starting, STS 2 μM starting, 10-pt, 3-fold dilution), 85.71%; in experiment [3] (setting [7]), 47.20%; in experiment [4] (setting [7]), 73.80%. In addition, the IC50 in the experiment with A549, lung carcinoma (Homo sapiens, A549, 72 h, read-out: IC50 (absolute IC50)) was 5.53 µM; in experiment [1] (Homo sapiens, ASPC1, 72 h, read-out: IC50 (absolute IC50)) it was 4.34 µM; in experiment [2] (Homo sapiens, PANC-1, 72 h, read-out: IC50 (absolute IC50)) it was 1.88 µM; in experiment [3] (setting [6]), above 10 µM; in experiment [4] (setting [6]), 3.37 µM; in experiment [5], 7 µM.

Broadly, the Inhibition is the share of the control response that was lost under treatment. Lower therefore signals a weak effect. For orientation: IC50 means the concentration at which inhibition is half-maximal.
